Reference: patent publication US9789181B2, “PAN-DR binding polypeptides and uses thereof” (Epimmune Inc., priority 2009, dated 2017)
Where no end group is shown, it is not given here.

Assays:
purified HLA DRB1 *0404 = purified HLA DRB1 *0404 (Homo sapiens, UniProt P01903+P01911, A100R/A169T/F76Y/I96L/K127E/L162R/M171V/N62H/P40V/Q125Y/R42H/S133A/S149N/S66Y/V209L/W38E); experiment: IC50nM to purified HLA | DRB1 *0404
Method: (§1) Table printed on a drawing sheet, FIG. 1
Head of the field: IC50nM to purified HLA | DRB1 *0404
(§2) First copying reader's note: The comma is the decimal sign and the point a thousands separator (e.g. 21.831); some values are printed bold or italic and some SEQ ID NOs underlined, with no legend on the sheet.
Where the first naming reader finds the target: head: IC50nM to purified HLA | DRB1 *0404

purified HLA DRB1 *1501 = purified HLA DRB1 *1501 (Homo sapiens, UniProt P01903+P01911); experiment: IC50nM to purified HLA | DRB1 *1501
Method: as §1
Head of the field: IC50nM to purified HLA | DRB1 *1501
as §2
Where the first naming reader finds the target: head: IC50nM to purified HLA | DRB1 *1501

purified HLA DRB5 *0101 = purified HLA DRB5 *0101 (Homo sapiens, UniProt P01903+Q30154); experiment: IC50nM to purified HLA | DRB5 *0101
Method: as §1
Head of the field: IC50nM to purified HLA | DRB5 *0101
as §2
Where the first naming reader finds the target: head: IC50nM to purified HLA | DRB5 *0101

purified HLA DRB1 *0301 = purified HLA DRB1 *0301 (Homo sapiens, UniProt P01903+P01911, A100K/A102G/A103R/A169T/F55Y/I96L/K41T/L162R/M171V/P40S/Q125H/Q178H/Q39Y/R42S/S66N/T106N/T262R/W38E/Y61H); experiment: IC50nM to purified HLA | DRB1 *0301
Sequence of purified HLA DRB1 *0301 (P01903 26-254 limits assumed, other chains not shown): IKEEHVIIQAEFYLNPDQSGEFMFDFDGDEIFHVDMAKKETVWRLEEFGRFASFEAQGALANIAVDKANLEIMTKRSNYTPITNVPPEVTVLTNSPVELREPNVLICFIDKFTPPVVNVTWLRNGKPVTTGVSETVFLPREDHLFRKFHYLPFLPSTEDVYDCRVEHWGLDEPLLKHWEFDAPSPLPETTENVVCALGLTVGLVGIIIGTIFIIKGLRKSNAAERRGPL
Method: as §1
Head of the field: IC50nM to purified HLA | DRB1 *0301
as §2
Where the first naming reader finds the target: head: IC50nM to purified HLA | DRB1 *0301

purified HLA DRB1 *0101 = purified HLA DRB1 *0101 (Homo sapiens, UniProt P01903+P01911, A100R/D57E/F55L/F60I/F76Y/I96L/L162R/M171V/P40L/Q125E/R42F/V115G/Y59C); experiment: IC50nM to purified HLA | DRB1 *0101
Method: as §1
Head of the field: IC50nM to purified HLA | DRB1 *0101
as §2
Where the first naming reader finds the target: head: IC50nM to purified HLA | DRB1 *0101

purified HLA DRB4 *0101 = purified HLA DRB4 *0101 (Homo sapiens, UniProt P01903+P13762, G164S); experiment: IC50nM to purified HLA | DRB4 *0101
Sequence of purified HLA DRB4 *0101 (P01903 26-254 limits assumed): as the sequence (P01903 26-254 limits assumed, other chains not shown) above
Sequence of purified HLA DRB4 *0101 (P13762 whole entry G164S): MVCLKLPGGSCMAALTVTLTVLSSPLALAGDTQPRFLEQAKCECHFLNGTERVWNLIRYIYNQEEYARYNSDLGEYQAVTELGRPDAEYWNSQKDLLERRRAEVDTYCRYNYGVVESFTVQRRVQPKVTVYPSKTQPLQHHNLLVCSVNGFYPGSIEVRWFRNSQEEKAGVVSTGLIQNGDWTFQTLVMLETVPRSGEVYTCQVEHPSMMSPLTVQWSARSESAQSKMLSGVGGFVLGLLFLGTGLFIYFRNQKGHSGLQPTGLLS
Method: as §1
Head of the field: IC50nM to purified HLA | DRB4 *0101
as §2
Where the first naming reader finds the target: head: IC50nM to purified HLA | DRB4 *0101

purified HLA DRB1 *1302 = purified HLA DRB1 *1302 (Homo sapiens, UniProt P01903+P01911, A100E/A169T/K41T/L162R/M171V/P40S/Q125H/Q178H/Q39Y/Q99D/R42S/S66N/T262R/V115G/W38E/Y61H); experiment: IC50nM to purified HLA | DRB1 *1302
Sequence of purified HLA DRB1 *1302 (P01903 26-254 limits assumed, other chains not shown): as the sequence (P01903 26-254 limits assumed, other chains not shown) above
Method: as §1
Head of the field: IC50nM to purified HLA | DRB1 *1302
as §2
Where the first naming reader finds the target: head: IC50nM to purified HLA | DRB1 *1302

purified HLA DRB1 *0701 = purified HLA DRB1 *0701 (Homo sapiens, UniProt P01903+P01911, A100R/A102G/A103Q/D57E/D86V/E43K/F76Y/K127E/L162R/M171V/P40G/Q125H/Q99D/R33Q/R42Y/R54Q/S133A/S66F/T210M/V115G/Y107V/Y59L/Y89S); experiment: IC50nM to purified HLA | DRB1 *0701
Method: as §1
Head of the field: IC50nM to purified HLA | DRB1 *0701
as §2
Where the first naming reader finds the target: head: IC50nM to purified HLA | DRB1 *0701

purified HLA DRB1 *1101 = purified HLA DRB1 *1101 (Homo sapiens, UniProt P01903+P01911, A100R/A169T/A87E/I96F/K41T/L162R/M171V/P40S/Q125H/Q178H/Q39Y/Q99D/R42S/S66Y/T262R/V115G/W38E); experiment: IC50nM to purified HLA | DRB1 *1101
Sequence of purified HLA DRB1 *1101 (P01903 26-254 limits assumed, other chains not shown): as above
Method: as §1
Head of the field: IC50nM to purified HLA | DRB1 *1101
as §2
Where the first naming reader finds the target: head: IC50nM to purified HLA | DRB1 *1101

purified HLA DRB1 *0802 = purified HLA DRB1 *0802 (Homo sapiens, UniProt P01903+P01911, A100R/A103L/A169T/F76Y/H45Y/I96F/K41T/L162R/M171V/P40S/Q125H/Q178H/Q39Y/Q99D/R218S/R42G/S66Y/V115G/W38E); experiment: IC50nM to purified HLA | DRB1 *0802
Method: as §1
Head of the field: IC50nM to purified HLA | DRB1 *0802
as §2
Where the first naming reader finds the target: head: IC50nM to purified HLA | DRB1 *0802

purified HLA DRB1 *0405 = purified HLA DRB1 *0405 (Homo sapiens, UniProt P01903+P01911, A100R/A169T/D86S/F76Y/I96L/K127E/L162R/M171V/N62H/P40V/Q125Y/R42H/S133A/S149N/S66Y/V115G/V209L/W38E); experiment: IC50nM to purified HLA | DRB1 *0405
Method: as §1
Head of the field: IC50nM to purified HLA | DRB1 *0405
as §2
Where the first naming reader finds the target: head: IC50nM to purified HLA | DRB1 *0405

purified HLA DRB1 *0401 = purified HLA DRB1 *0401 (Homo sapiens, UniProt P01903+P01911, A100K/A169T/F76Y/I96L/K127E/L162R/M171V/N62H/P40V/Q125Y/R42H/S133A/S149N/S66Y/V115G/V209L/W38E); experiment: IC50nM to purified HLA | DRB1 *0401
Method: as §1
Head of the field: IC50nM to purified HLA | DRB1 *0401
as §2
Where the first naming reader finds the target: head: IC50nM to purified HLA | DRB1 *0401

purified HLA DRB1 *0901 = purified HLA DRB1 *0901 (Homo sapiens, UniProt P01903+P01911, A100R/A103E/D57H/D86V/F55Y/F60I/F76Y/I96F/K127E/L162R/M171V/P40D/Q125H/Q99R/R33Q/R42F/S133A/S66N/T210M/V115G/W38K/Y107V/Y59G/Y89S); experiment: IC50nM to purified HLA | DRB1 *0901
Method: as §1
Head of the field: IC50nM to purified HLA | DRB1 *0901
as §2
Where the first naming reader finds the target: head: IC50nM to purified HLA | DRB1 *0901

| IC50 (purified HLA DRB1 *0404) [nM] | IC50 (purified HLA DRB1 *1501) [nM] | IC50 (purified HLA DRB5 *0101) [nM] | IC50 (purified HLA DRB1 *0301) [nM] | IC50 (purified HLA DRB1 *0101) [nM] | IC50 (purified HLA DRB4 *0101) [nM] | IC50 (purified HLA DRB1 *1302) [nM] | IC50 (purified HLA DRB1 *0701) [nM] | IC50 (purified HLA DRB1 *1101) [nM] | IC50 (purified HLA DRB1 *0802) [nM] | IC50 (purified HLA DRB1 *0405) [nM] | IC50 (purified HLA DRB1 *0401) [nM] | IC50 (purified HLA DRB1 *0901) [nM] | Compound |
| --- | --- | --- | --- | --- | --- | --- | --- | --- | --- | --- | --- | --- | --- |
| 6.1 | 66 | 9.4 | – | 43 | 12500 | – | – | 57 | – | 8.4 | 4.5 | 113 | AAAFFVAAFTLKADA [SEQ ID NO: 18] |
| 4.1 | 70 | – | – | 6.5 | 876 | 64 | – | 42 | – | 27 | 3.8 | 31 | AAAFFVAANTLHAAA [SEQ ID NO: 15] |
| 2 | 36 | – | 111 | 4.3 | 447 | 4240 | 84 | 32 | – | – | – | 33 | AAAWFVAAWTLHAAA [SEQ ID NO: 7] |
| 3.2 | 6.2 | 25 | 160 | 3.9 | 460 | 3110 | 91 | – | – | 24 | 3.8 | 19 | AAAWFVAAYTLHAAA [SEQ ID NO: 8] |
| 6 | 25 | 7.3 | – | 3.8 | – | 856 | 45 | 55 | 6.7 | 33 | 5 | – | AAAFFVAAYTLKADA [SEQ ID NO: 17] |
| 2.7 | 64 | – | – | 7.2 | – | 7050 | 91 | 65 | 20 | 22 | 5.3 | 32 | AAAFFVAAWTLKADA [SEQ ID NO: 16] |
| 2.4 | – | 22 | – | 3.9 | 209 | 656 | 35 | – | 7.6 | – | 3.4 | 24 | AAAKFVAAWTLHAAA [SEQ ID NO: 6] |
| 1.4 | – | 5.9 | – | 2.7 | 291 | 917 | – | 11 | 6.1 | 6.6 | 1.6 | – | AAAYFVAAWTLKAAA [SEQ ID NO: 20] |
| – | 101 | 22 | 174 | 3.8 | 606 | 38 | 43 | – | 8.6 | – | 2.9 | 33 | AAAWFVAANTLHAAA [SEQ ID NO: 10] |
| 7.3 | 32 | 9.9 | 227 | 5.7 | 517 | 2810 | 74 | 27 | – | 31 | 2.4 | 31 | AAAFFVAAWTLKAAA [SEQ ID NO: 11] |
| 3.8 | 31 | 9.3 | 161 | – | 566 | 2930 | – | – | 8.5 | – | 3.1 | 35 | AAAWFVAAWTLKAAA [SEQ ID NO: 5] |
| 1.1 | 25 | 29 | 371 | – | 129 | 219000 | 610 | – | – | – | 2 | 48 | AAAFFVAAFTLHAAA [SEQ ID NO: 14] |
| 4.8 | 20 | 11 | 262 | 4.7 | 384 | 1530 | 110 | – | – | – | 3.1 | 45 | AAAHFVAAWTLKAAA [SEQ ID NO: 25] |
| 1.9 | 4 | – | 77 | – | 445 | 830 | 65 | – | 5.2 | 7.3 | 2.3 | 11 | AAAYFVAAYTLHAAA [SEQ ID NO: 22] |
| 4.5 | 103 | 4.4 | 140 | 3.4 | 5520 | 187 | – | 46 | – | 9.5 | 4 | – | AAAFFVAANTLKADA [SEQ ID NO: 19] |

| Compound | IC50 (purified HLA DRB1 *0404) [nM] | IC50 (purified HLA DRB1 *1501) [nM] | IC50 (purified HLA DRB5 *0101) [nM] | IC50 (purified HLA DRB1 *0301) [nM] | IC50 (purified HLA DRB1 *0101) [nM] | IC50 (purified HLA DRB4 *0101) [nM] | IC50 (purified HLA DRB1 *1302) [nM] | IC50 (purified HLA DRB1 *0701) [nM] | IC50 (purified HLA DRB1 *1101) [nM] | IC50 (purified HLA DRB1 *0802) [nM] | IC50 (purified HLA DRB1 *0405) [nM] | IC50 (purified HLA DRB1 *0401) [nM] | IC50 (purified HLA DRB1 *0901) [nM] |
| --- | --- | --- | --- | --- | --- | --- | --- | --- | --- | --- | --- | --- | --- |
| AAAKFVAAWTLKAAA [SEQ ID NO: 4] | 2.9 | 9.8 | 5.4 | 209 | 3.3 | 207 | 648 | 49 | 11 | 5.2 | 25 | – | – |
| CC(C)C[C@H](NC(=O)[C@@H](NC(=O)[C@H](Cc1c[nH]c2ccccc12)NC(=O)[C@H](C)NC(=O)[C@H](C)NC(=O)[C@@H](NC(=O)[C@H](Cc1ccccc1)NC(=O)[C@H](CCCCN)NC(=O)[C@H](C)N)C(C)C)[C@@H](C)O)C(=O)N[C@@H](CCCCN)C(=O)N[C@@H](C)C(=O)N[C@@H](C)C(=O)N[C@@H](C)C(=O)O [SEQ ID NO: 3] | 0.79 | 37 | 19 | 289 | 4 | 447 | 367 | 97 | 9.1 | 9.5 | 32 | 1.4 | 50 |
